Results taken from patent US12037372B2, “Bioactive peptides derived from snakes” (Universiteit Leiden, priority 2018, dated 2024).
Entries after “also recorded” stand apart in the source; their conditions may differ.

Experiments:
[1] = tested on: MRSA; settings: Cai et al., 2018; cited from earlier work
[2] = tested on: P. aeruginosa; settings: Cai et al., 2018; cited from earlier work
[3] = tested on: melanoma; settings: Wang et al.; cited from earlier work
[4] = tested on: MDR P. aeruginosa (LUH 15103); assay: Bactericidal activity of peptides (in vitro killing assay); type: cell-based, Pseudomonas aeruginosa; settings: 2-hour treatment, 50% v/v human plasma, median (range)
Experimental: (§1) Enterococcus faecium (LUH 15122), Staphylococcus aureus (LUH 14616), Klebsiella pneumoniae (LUH 15104), Acinetobacter baumannii (RUH 875), Pseudomonas aeruginosa (LUH 15103), Enterobacter cloacae (LUH 15114) and Escherichia coli (LUH 15117) were used. Prior to experimentation the bacteria were taken from a glycerol stock stored at −80° C. and cultured overnight on sheep blood agar plates at 37° C. On the day of experimentation the bacteria were cultured in tryptic soy broth (TSB; Oxoid) for 2.5 hours at 37° C. and 200 rpm to a mid-logarithmic phase. The bacterial suspension was washed in phosphate buffered saline (PBS; pH 7.4), centrifuged for 10 minutes at 3000 rpm, and resuspended in PBS to the desired concentration, as determined by measuring the absorbance at 600 nm.
(§2) As a control the bacteria were also incubated in PBS with either 50% plasma or 50% urine without peptide. The plate was incubated for 2 hours at 37° C. and 200 rpm. After incubation the number of viable bacteria was determined microbiologically by plating the samples and a 10-times dilution series in PBS on diagnostic sensitivity test agar plates (DST; Sigma). The DST plates were incubated overnight at 37° C. Results were expressed as lethal concentration 99.9, or LC99.9, which represents the lowest concentration of peptide that killed 99.9% of the bacteria within 2 hours of incubation.

[5] = tested on: MDR S. aureus (LUH 14616), MRSA; assay: as above; type: cell-based, Staphylococcus aureus; settings: 50% v/v human plasma
Experimental: as §1, §2

[6] = tested on: melanoma cells and other cancer cells; settings: Wang et al.; cited from earlier work
[7] = tested on: persisters originating from matured, antibiotic-exposed, MRSA biofilms; assay: Activity against persisters; type: cell-based, Staphylococcus aureus
[8] = tested on: A. Baumannii; assay: Resistance development assay; type: cell-based, Acinetobacter baumannii; settings: 20 passages
Experimental: (§3) A bacterial culture was prepared and washed as described before. The bacterial culture was diluted to a concentration of 5×10^6 CFU/ml in modified RPMI 1640 comprising 20 mM HEPES, L-glutamine and without sodium bicarbonate (RPMImod; Sigma-Aldrich). In a polypropylene 96-well plate, a two-fold peptide dilution series was made in RPMImod with concentrations ranging from 0.94 μM to 240 μM. […] A negative control of RPMImod without peptide or an antibiotic was included for both dilution series. A contamination control was included containing only RPMImod. To all the wells, except the contamination control wells, 5 μl of the bacterial suspension were added. The plate was sealed and incubated overnight at 37° C. and 200 rpm. After incubation the MIC was determined as the well with the lowest peptide concentration and no bacterial growth. The well with half the MIC was diluted 2.5-fold with RPMImod and transferred to an Eppendorf tube. […] The results were expressed as the fold increase of the MIC compared to the MIC at the first passage.

[9] = tested on: 24-hour biofilm of A. baumannii RUH 875; assay: Biofilm breakdown assay; type: cell-based, Acinetobacter baumannii; settings: 2-hour treatment
Experimental: To a polypropylene 96-well flat-bottom plate (Greiner) 50 μl of a bacterial suspension at a concentration of 1×10^7 CFU/ml in BM2 medium (Overhage et al., 2008) were added. A control comprising BM2 medium alone was included. The plate was sealed off with a seal (Costar) and incubated in a humidified environment for 24 hours at 37° C. Thereafter the wells were washed 2 times with PBS. […] The plate was sealed off and incubated for 2 hours at 37° C. and 200 rpm. For analysis the plate was sonicated (Ultrasoonbad BRANSONIC® m1800H-E; Boom b.v.) for 5 minutes to detach the biofilm bacteria. The number of viable bacteria in the sonicates was determined microbiologically by plating the samples and a 10-times dilution series on DST agar plates and incubating these overnight at 37° C. Results were expressed as the LC99.9.

[10] = tested on: MDR E. cloacae (LUH 15114); assay: Bactericidal activity of peptides (in vitro killing assay); type: cell-based, Enterobacter cloacae; settings: PBS with 50% plasma, 2 hours
Experimental: as §1, §2

[11] = tested on: multidrug resistant strain Acinetobacter baumannii RUH875; assay: as above; type: cell-based; settings: for LC99.9, bactericidal activity: MDR A. baumannii, PBS with 50% plasma
Experimental: as §1, §2

[12] = tested on: MRSA (S. aureus LUH 14616) on ex vivo human skin; assay: Ex vivo skin model; set-up: species or system Staphylococcus aureus; settings: 10 μl peptide solution; 1 hour treatment
Source text: The donor skin was transported to the LUMC in RPMI 1640 medium (Gibco) supplemented with penicillin/streptomycin (Gibco). Skin samples were washed in PBS and left overnight in RPMI 1640 medium without antibiotics. On the day of the experiment the skin was again washed in PBS, then spread out and punches with a diameter of 8 mm diameter were made with a biopsy punch (Stiefel). The skin samples were dried with a cotton swab. A liquid dam was made with LC Block-Out Resin (Ultradent) on the edge of the skin samples to prevent liquids from dripping off. The liquid dam was solidified by 4 seconds exposure of UV light (Super 1200 led; ECO). The skin samples were placed on grids in a 12-well plate (Costar) filled underneath with medium comprising Ham F12, DMEM and FCS (Gibco). An S. aureus LUH 14616 bacterial suspension was cultured and washed as described before. The skin punches were inoculated with 5 μl of the bacterial suspension (1×10^8 CFU/ml) for one hour at 37° C. and 5% CO2. […] The infected skin was treated for 1 hour at 37° C. and 5% CO2 with 10 μl of the peptide solutions, including a control with 10 μl of PBS alone. Polypropylene tubes were filed with glass beads (1.7 mm diameter) and 1 ml of PBS. The liquid dam was removed from the skin after treatment. […] Results were expressed as the number of viable bacteria (CFU/ml) after treatment.

[13] = tested on: lipopolysaccharide from E. coli J5 (LPS); assay: LPS neutralization by peptides (whole blood, IL-12p40 ELISA); type: cell-based, human; settings: compared to the LPS control
Experimental: Heparinized blood collected from healthy human volunteers was diluted five times in RPMI 1640. Next, 195 μl of diluted blood were pipetted in to the wells of a 96-well cell culture plate. In another 96-well polypropylene V-bottom plate, 15 μl of peptide solution with final concentrations of 1 nM to 1000 nM were mixed with 15 μl of 500 ng/ml lipopolysaccharide from E. coli J5 (LPS; Sigma) for 30 minutes at 37° C. and 200 rpm. After incubation the mixtures were diluted five times with 120 μl of RPMI. From the diluted mixtures 5 μl were transferred to the wells of the plate containing the 195 μl of blood. The plate was incubated for 20 hours at 37° C. and 5% CO2. The plate was centrifuged for 5 minutes at 1200 rpm. The supernatants were stored as aliquots at −20° C. until analysis of the cytokine level by ELISA. The IL-12p40 sandwich ELISA from Invitrogen was used. ELISAs were performed according to manufacturer's instructions. Results were expressed as the concentration IL-12p40 in pg/ml.

[14] = tested on: S. aureus LUH 14616; assay: Resistance development assay; type: cell-based, Staphylococcus aureus; settings: 20 passages
Experimental: as §3

[15] = tested on: E. faecium (LUH 15122); assay: Bactericidal activity of peptides (in vitro killing assay); type: cell-based, Enterococcus faecium; settings: PBS with 50% plasma, 2 hours
Experimental: as §1, §2

[16] = tested on: colistin-resistant E. coli (LUH 15117); assay: as above; type: cell-based, Escherichia coli; settings: PBS with 50% plasma, 2 hours
Experimental: as §1, §2

[17] = tested on: A. Baumannii; assay: Killing of A. baumannii in BM2 medium (control); type: cell-based, Acinetobacter baumannii; settings: 0.8 μM peptide
Experimental: As a control, the ability of these peptides to kill A. baumannii in BM2 medium was assessed.

[18] = tested on: MDR K. pneumoniae (LUH 15104); assay: Bactericidal activity of peptides (in vitro killing assay); type: cell-based, Klebsiella pneumoniae; settings: PBS with 50% plasma, 2 hours
Experimental: as §1, §2

[19] = tested on: E. coli; assay: Resistance development assay; type: cell-based, Escherichia coli; settings: 20 passages
Experimental: as §3

[20] = tested on: drug-sensitive strain Escherichia coli LUH15108; assay: Bactericidal activity of peptides (in vitro killing assay), alanine scan; type: cell-based; settings: lowest concentration killing 99.9% of an inoculum of about one million bacteria, 50% (v/v) human plasma, within 2 hours
Experimental: The amino acids of the SP27 peptide were substituted at various positions with Alanine. The substituted peptides were tested on A. baumannii and E. coli bacterial strains for having antimicrobial activity. Furthermore, the substituted peptides were tested for their hemolytic activity as an indicator for their toxicity.

## KRFQNFFRELEKKFREFFRVYRITIGATIRF [SP16]
[1]
  bactericidal effect against MRSA: no bactericidal effect
[2]
  bactericidal effect against P. aeruginosa: no bactericidal effect

## KRFKKFFRKLKKSVKKRAKEFFKKPRVIGVSIPF [SP5]
[3]
  tumor load in melanoma-bearing mice: reduces the tumor load
[4]
  LC99.9 (μM) MDR P. aeruginosa in 50% plasma: 0.4 µM
[5]; MDR S. aureus LUH 14616, 2-hour treatment, lowest concentration killing ≥99.9%, median (range)
  LC99.9 (μM) MRSA in 50% plasma: 25.6 µM
[6]
  effect on melanoma cells and other cancer cells in vitro: inhibits

## KRFKKFFKKLKNNVKKRVKKFFRKPRVIGVTIPF [SP4]
[7]
  activity against persisters: highly effective
[8]
  resistance development: fold increase of the MIC: remained constant for all 20 passages
[9]
  peptide concentration with complete elimination of the biofilms: 51.2 µM
[10]
  LC99.9, bactericidal activity: submicromolar concentrations
[5]; Table 2, MDR S. aureus, concentration inducing 3 log reduction of viable bacteria
  LC99.9: 3.2 µM
[11]; 2 hours
  LC99.9, bactericidal activity: submicromolar concentrations
[12]
  peptide concentration killing 99.9% of the MRSA on ex vivo human skin: 102.4 µM
[13]; 100 nM peptide
  LPS neutralization (IL-12p40 production): 74%
[13]; 1000 nM peptide
  LPS neutralization (IL-12p40 production): 96%
[14]
  resistance development: fold increase of the MIC: remained constant for all 20 passages; also recorded: limited resistance
[15]
  LC99.9, bactericidal activity: low micromolar concentrations
[16]
  LC99.9, bactericidal activity: submicromolar concentrations
[17]
  reduction of viable bacteria: 2 log
[18]
  LC99.9, bactericidal activity: submicromolar concentrations
[19]
  resistance development: fold increase of the MIC: remained constant for all 20 passages

## KRFKKFFRKVKKGVHRYFKKNKFYIAATIPYYG [SP27]
[8]
  resistance development: fold increase of the MIC: remained constant for all 20 passages
[20]
  LC99.9 (μM) E. coli: 1.6 µM
[9]
  peptide concentration with complete elimination of the biofilms: 51.2 µM
[10]
  LC99.9, bactericidal activity: submicromolar concentrations
[11]; 2 hours
  LC99.9, bactericidal activity: submicromolar concentrations
[11]; Table 5, 50% (v/v) human plasma, 2 hours
  LC99.9 (μM) A. baumannii: 0.8 µM
[11]; Table 6, 50% (v/v) human plasma, 2 hours
  LC99.9 (μM) A. baumannii: 0.8 µM
[11]; lowest concentration killing 99.9% of an inoculum of about one million bacteria in 50% (v/v) human plasma within 2 hours, A. baumannii RUH875
  LC99.9 (μM) A. baumannii: 0.8 µM
[11]; lowest concentration killing 99.9% of an inoculum of about one million bacteria, 50% (v/v) human plasma, within 2 hours, A. baumannii RUH875
  LC99.9 (μM) A. baumannii: 0.8 µM
[11]; lowest concentration of the peptide that kills 99.9% of an inoculum of about one million bacteria in the presence of 50% (v/v) human plasma within 2 hours, Acinetobacter baumannii RUH875
  LC99.9 (μM) A. baumannii: 0.8 µM
[12]
  peptide concentration killing 99.9% of the MRSA on ex vivo human skin: 204.8 µM
[14]
  resistance development: fold increase of the MIC: remained constant for all 20 passages; also recorded: limited resistance
[15]
  LC99.9, bactericidal activity: low micromolar concentrations
[16]
  LC99.9, bactericidal activity: submicromolar concentrations
[17]
  reduction of viable bacteria: 2 log
[18]
  LC99.9, bactericidal activity: submicromolar concentrations
[19]
  resistance development: fold increase of the MIC: remained constant for all 20 passages
